The numbers were not newly measured in publication PMC3816732, “Database-Guided Discovery of Potent Peptides to Combat HIV-1 or Superbugs” (Pharmaceuticals, 2013), which cites them from elsewhere.

The subject of series [1] is HIV-1. An excerpt:
For example, proline-rich AMPs are known to interact with bacterial heat shock proteins.

Series [2] concerns Staphylococcus aureus USA300 LAC. On the set-up: method as in 2 sources, ref 52, 53 = [52]; PMID 20086159; doi:10.1128/AAC.01448-09; 52. Wang G. Watson K.M. Peterkofsky A. Buckheit R.W. Jr. Identification of novel human immunodeficiency virus type 1 inhibitory peptides based on the antimicrobial peptide database Antimicrob. Agents || [53]; PMID 22445495; doi:10.1016/j.ijantimicag.2012.02.003; 53. Menousek J. Mishra B. Hanke M.L. Heim C.E. Kielian T. Wang G. Database screening and in vivo efficacy of antimicrobial peptides against methicillin-resistant Staphylococcus aureus USA300 Int. J. A ||| ref 55 = [55]; PMID 22803960; doi:10.1021/ja305644e; 55. Mishra B. Wang G. Ab initio design of potent anti-MRSA peptides based on database filtering technology J. Am. Chem. Soc. 2012 134 12426 12429 10.1021/ja305644e 22803960 PMC3412535. Particulars: for S. aureus USA300 (MIC, μM): S. aureus USA300 LAC (MRSA), database screening; for activity against S. aureus USA300 (MRSA), in words: database-screened peptides. The text has this: In fact, the annual frequency of deaths from MRSA is rapidly increasing and has surpassed those caused by HIV/AIDS. Therefore, there is a need to develop new treatments to control MRSA. To identify new compounds against MRSA USA300 LAC, we also assayed the antibacterial activity of the same 30 peptides used for screening anti-HIV-1 peptides above. […] For example, proline-rich AMPs are known to interact with bacterial heat shock proteins.

The subject of series [3] is Bacillus subtilis. To be noted: database-screened peptides. The text has this:
[The procedure below names another organism; the source lists this organism under the same test.] (§1) The spread of MRSA from the clinical setting to the communities is worrisome. In fact, the annual frequency of deaths from MRSA is rapidly increasing and has surpassed those caused by HIV/AIDS. Therefore, there is a need to develop new treatments to control MRSA. To identify new compounds against MRSA USA300 LAC, we also assayed the antibacterial activity of the same 30 peptides used for screening anti-HIV-1 peptides above. […] We referred to this unique method as ab initio design to distinguish it from the de novo methods above. Our design comprises two major modules. The first module consists of an activity filter that allows us to obtain a list of peptides with desired activity (e.g., antibacterial, antifungal, antiviral, antiparasitic, or anticancer). To obtain compounds to kill S. aureus, we retrieved all AMPs with activity against Gram-positive bacteria as model peptides. The second module is composed of a series of parameter filters ...

Series [4] relates to Pseudomonas aeruginosa. Particulars: database-screened peptides.
From the text: [The procedure below names another organism; the source lists this organism under the same test.] as §1

The test system of series [5] is Escherichia coli. Particulars: database-screened peptides.
From the text: as §1, with “... || As a second example, we also aimed to identify the minimal active region in a longer peptide. Human cathelicidin LL-37 is a 37-residue peptide starting with a pair of leucines. Our studies produced a library of model peptides with distinct antimicrobial activity. KR-12 is identified as the minimal antibacterial peptide corresponding to residues 18–29 of human LL-37. It is active against E. coli but not HIV-1 [56, 71]. However, FK-13, a core antimicrobial peptide with one more phenylalanine at the N-terminus than KR-12 [72], is active against both HIV-1 and E. coli.” for “...”

Series [6] concerns Staphylococcal biofilm. To be noted: catheter embedded in mice.
Series [7] has as its system E. coli K12. On the set-up: method as in 5 sources, ref [9] = [9]; PMID 18957441; doi:10.1093/nar/gkn823; 9. Wang G. Li X. Wang Z. The updated antimicrobial peptide database and its application in peptide design Nucleic Acids Res. 2009 37 D933 D937 10.1093/nar/gkn823 18957441 PMC2686604 ||| ref [52] = [52]; PMID 20086159; doi:10.1128/AAC.01448-09; 52. Wang G. Watson K.M. Peterkofsky A. Buckheit R.W. Jr. Identification of novel human immunodeficiency virus type 1 inhibitory peptides based on the antimicrobial peptide database Antimicrob. Agents ||| ref [54] = [54]; doi:10.4172/2155-6113.S2-003; 54. Wang G. Buckheit K.W. Mishra B. Lushnikova T. Buckheit R.W. Jr. De Novo Design of Antiviral and Antibacterial Peptides with Varying Loop structures J. AIDS Clin. Res. 2011 S2:003 10.4172/2155-6113 ||| ref 9, 52, 54 = [9]; PMID 18957441; doi:10.1093/nar/gkn823; 9. Wang G. Li X. Wang Z. The updated antimicrobial peptide database and its application in peptide design Nucleic Acids Res. 2009 37 D933 D937 10.1093/nar/gkn823 18957441 PMC2686604 || [52]; PMID 20086159; doi:10.1128/AAC.01448-09; 52. Wang G. Watson K.M. Peterkofsky A. Buckheit R.W. Jr. Identification of novel human immunodeficiency virus type 1 inhibitory peptides based on the antimicrobial peptide database Antimicrob. Agents || [54]; doi:10.4172/2155-6113.S2-003; 54. Wang G. Buckheit K.W. Mishra B. Lushnikova T. Buckheit R.W. Jr. De Novo Design of Antiviral and Antibacterial Peptides with Varying Loop structures J. AIDS Clin. Res. 2011 S2:003 10.4172/2155-6113 ||| ref 9, 54 = [9]; PMID 18957441; doi:10.1093/nar/gkn823; 9. Wang G. Li X. Wang Z. The updated antimicrobial peptide database and its application in peptide design Nucleic Acids Res. 2009 37 D933 D937 10.1093/nar/gkn823 18957441 PMC2686604 || [54]; doi:10.4172/2155-6113.S2-003; 54. Wang G. Buckheit K.W. Mishra B. Lushnikova T. Buckheit R.W. Jr. De Novo Design of Antiviral and Antibacterial Peptides with Varying Loop structures J. AIDS Clin. Res. 2011 S2:003 10.4172/2155-6113. Particulars: for MIC: peptide potency against E. coli K12. An excerpt:
Our initial attempt was a stepwise design based on the bioinformatics results from our database.

Series [8] relates to chymotrypsin.
Series [9] relates to herpes simplex virus type-2 (HSV-2). On the set-up: method as in doi:10.4172/2155-6113.S2-003. The text has this:
These GLRC peptides (Table 3) are made of only amino acids G, L, R, and C. […] O ...

Where [10] appears, read: peptide potency against HIV-1, database-guided designed peptides.

“Also recorded” adds a separate entry of the source. Like-named read-outs stand apart in the source and are kept apart here. Bridges are numbered along the chain shown (N, C = ends). Where no end group is shown, it is not given here.

With Ascaphin-8, the “activity against HIV-1, in words” value in [1] is “effective”. Also, the EC50 (usually the concentration that produces a half-maximal response) in series [1] (read-out: HIV-1 (EC50)) was 1200 nM. Moreover, in series [2], the “S. aureus USA300 (MIC, μM)” value was 3.1 µM and the “activity against S. aureus USA300 (MRSA), in words” value (“activity against S. aureus USA300” for short) is on record as “effective”. Moreover, the “activity against S. aureus USA300” value in [2] (listed as Aascaphin-8) is recorded as “active”. Also, in series [3], the “activity against B. subtilis, in words” value is “active”. Moreover, in series [4], the “activity against P. aeruginosa, in words” value is “active”. The “activity against E. coli, in words” value in series [5] was “active”.

For the substance FFGKVLKLIRKIF-NH2 [DASamP1], the “activity against HIV-1, in words” value in [1] was “effective”. Besides, the EC50 in series [1] (read-out: HIV-1 (EC50)) was 630 nM. Further, in series [2], the “S. aureus USA300 (MIC, μM)” value is 3.1 µM and the “activity against S. aureus USA300” value is recorded as “active; also recorded: effective”. Besides, the “activity against B. subtilis, in words” value in series [3] is “not”. Besides, in [4], the “activity against P. aeruginosa, in words” value is listed as “not”. In addition, the “activity against E. coli, in words” value in series [5] was “not”. Further, the “prevention of Staphylococcal biofilm formation” value in series [6] is “able to prevent Staphylococcal biofilm formation”.

In the case of “GCRRLCGRLGRRLCRLLCR (also: bicyclic or more (positions not given here)) [GLRC-4]”, the EC50 in [1] (setting [10]) was 30700 nM. Moreover, the “MIC” value in [7] is 60 µM. Further, the “Stability (% left)” value in [8] (stability to the action of chymotrypsin) is 9.7 % left.

For “GCRRLLGRLLRRLGRLLCR (disulfide 2-18 (inferred)) [GLRC-1]”, the EC50 in series [1] (setting [10]) was > 43800 nM. Besides, the “MIC” value in series [7] is 30 µM. Also, the “Stability (% left)” value in series [8] is on record as 20.8 % left.

Regarding “GLKKLLGKLLKKLGKLLLK [GLK-19, 19-residue peptide containing only G, L, and K]”, the “activity against HIV-1, in words” value in series [1] (GLK/GLR/GLRC designed peptides) is given as “not”. For the same substance, in [1] (setting [10]), the EC50 was > 47500 nM. The “MIC” value in [7] is 10 µM.

Turning to “GLRCRLGRLLRRLGRCLLR (disulfide 4-16 (inferred)) [GLRC-2]”, in series [1] (GLK/GLR/GLRC designed peptides), the “activity against HIV-1, in words” value is listed as “most effective”. For the same substance, the EC50 in series [1] (setting [10]) was 790 nM. Also, the “MIC” value in series [7] was 30 µM. Also, the “inhibitory effect on HSV-2” value in series [9] was “inhibitory effect”. For the same substance, in series [8], the “Stability (% left)” value was 63.3 % left and the “stability to the action of chymotrypsin, in words” value is recorded as “most stable”.

With “GLRRLCGRLGRRLCRLLLR (disulfide 6-14 (inferred)) [GLRC-3]”, in [1] (setting [10]), the EC50 was 2800 nM. Moreover, the “MIC” value in [7] is 7.5 µM. Moreover, in series [8], the “Stability (% left)” value is reported as 1.4 % left.

Take GLRRLLGRLLRRLGRLLLR [GLR-19]: the “activity against HIV-1, in words” value in series [1] (GLK/GLR/GLRC designed peptides) is “HIV-1 inhibitory”. Moreover, the concentration giving a half-maximal response (EC50) in [1] (setting [10]) was 4400 nM. In addition, the “activity against E. coli, in words” value in series [7] (GLK/GLR designed peptides) is “lost activity”. Also, the “MIC” value in series [7] is >120 µM. Further, the “Stability (% left)” value in series [8] is on record as 14.5 % left.

For “IKWKKLLRAAKRIL-NH2 [DASamP2, derivative of polybia-MPI, […]-amide]”, in series [2], the “S. aureus USA300 (MIC, μM)” value is 6.2 µM and the “activity against S. aureus USA300” value was “active”. Moreover, the “activity against B. subtilis, in words” value in series [3] is “active”. Also, the “activity against P. aeruginosa, in words” value in series [4] was “active”. The “activity against E. coli, in words” value in [5] was “active”.

“Lycotoxin I: spider antimicrobial peptide (IWLTALKFLGKHAAKHLAKQQLSKL; UniProt P61507 1-25, looked up)”: in series [2], the “S. aureus USA300 (MIC, μM)” value was 3.1 µM and the “activity against S. aureus USA300” value is reported as “active”. For the same substance, the “activity against B. subtilis, in words” value in [3] is recorded as “active”. Further, in series [4], the “activity against P. aeruginosa, in words” value is “active”. The “activity against E. coli, in words” value in series [5] is “active”.

For Maculatin 1.3, in series [2], the “S. aureus USA300 (MIC, μM)” value is 6.2 µM and the “activity against S. aureus USA300” value was “active”. In addition, in series [3], the “activity against B. subtilis, in words” value is “active”. Besides, in series [4], the “activity against P. aeruginosa, in words” value is “not”. For the same substance, the “activity against E. coli, in words” value in [5] was “not”.

Take Piscidin 1: in series [2], the “S. aureus USA300 (MIC, μM)” value is 3.1 µM and the “activity against S. aureus USA300” value is listed as “effective”. Further, the “activity against S. aureus USA300” value in [2] (listed as piscidin 1) is “active”. The “activity against B. subtilis, in words” value in series [3] is reported as “active”. In series [4], the “activity against P. aeruginosa, in words” value was “active”. Also, the “activity against E. coli, in words” value in series [5] is “active”.

As to Ponericin L2 [reference compound], the EC50 in [1] (read-out: HIV-1 (EC50), database screening of 30 APD peptides) is 1400 nM.

For drosocin [reference compound], the “activity against HIV-1, in words” value in series [1] is “did not show any activity”.
